Experiments:
RPE1 p53-/- cells = assay: Immunofluorescence foci, RPE1 p53-/- cells; assay type: cell-based, human; conditions: RPE1 p53-/- cells treated with aphidicolin followed by acute CDK1i
Procedure: Immunofluorescence microscopy […] For detection of micronuclei, cells were fixed in 250 mM HEPES pH 7.5, 0.1% Triton X-100, 4% PFA in PBS for 20 minutes at 4 °C. Coverslips were then incubated for 5 min in 1x PBS with three buffer changes followed by incubation with 0.5% Triton X-100/ PBS for 10 min at room temperature. Coverslips were then incubated for 5 minutes in 1x PBS with three buffer changes. For EdU detection coverslips were transferred to a humidified chamber and incubated in EdU click it reaction buffer containing Alexafluor 488 azide for 1 h at room temperature followed by three 5 min washes in 1x PBS. Coverslips were then incubated in 5% FBS/PBS for 1 h followed by overnight incubation at 4 °C with primary antibody diluted in 5% FBS/PBS. Coverslips were then washed 3 × 5 min in 1x PBS followed by 1 h incubation at room temperature in 5% FBS/PBS containing secondary antibodies. Coverslips were incubated a further three times for 5 min in 1x PBS. Coverslips were then mounted on superfrost microscopy slides using Vectashield mounting medium with DAPI (Vector laboratories, […]). […] Cells were fixed in […] for 15 min at room temperature, followed by 3 × 5 min washes in 1xPBS. Coverslips were then incubated in 0.5% Triton-X/PBS for 10 min at room temperature, followed by a further 3 × 5 min 1xPBS washes. Coverslips were then incubated in blocking buffer (2% BSA, 0.05% Tween-20) for 1 h at room temperature, followed by incubation in respective primary antibodies overnight at 4 °C. Coverslips were then washed 3x for 5 min in 1x PBS followed by incubation for 1 h at room temperature in blocking buffer containing secondary antibodies. Coverslips were then washed 3x for 5 min in 1x PBS and mounted with Vectashield PLUS antifade mounting medium with DAPI (Vector laboratories, […]). Images were acquired using a Zeiss Axio Observer Z1 MarianasTM Microscope attached with a CSU-SoRa spinning disk unit using either a Photometrics Kinetix sCMOS camera built by Intelligent Imaging Innovations (3i) or a Zeiss Axio Observer Z1 MarianasTM Microscope attached with a CSUX1 spinning disk unit and Hamamatsu Flash 4 CMOS camera built by Intelligent Imaging Innovations (3i) or using an Opera Phenix Plus high content imaging system (Revvity). In each case 405, 488 and 640 laser lines were used in addition to DAPI, GFP/FITC, iRFP/CY5 emission filters. Quantification was carried out using FIJI (ImageJ, RRID:SCR_003070) software, CellProfiler (Broad Institute), Harmony (Revvity) or using […] Microsystems). Images of mitotic cells were analysed in 3D with maximum Z projections used for representative images in the manuscript to assist with visualisation.For interphase cells 2D images were analysed.

[1] = tested on: eGFP-TOPBP1 interaction with SLX4, MUS81, ERCC1, BTR complex; assay: eGFP-TOPBP1 co-immunoprecipitation, mitotic HEK293TN cells; assay type: cell-based, human; conditions: eGFP-TOPBP1 Co-IP; RO-3306 7 µM, 30 min
Procedure: GFP-Trap® Agarose Co-immunoprecipitation
HEK293TN cells were seeded to be ~25–30% confluence the next day in a 15 cm tissue culture dish. The following day cells were transfected using Lipofectamine 2000 transfection reagent (Thermo Fisher Scientific) with 24 µg of plasmid DNA encoding eGFP-SLX4 or eGFP-TOPBP1 expression cassettes following manufacturer’s instructions.
Forty eight hours post transfection cells were harvested after treatments as described, snap frozen on dry ice and stored at −80 °C. Cell pellets were removed from −80 storage and thawed on ice in 2.4 ml IP buffer 1 (100 mM NaCl, 0.2% Igepal CA-630, 1 mM MgCl2, 10% glycerol, 5 mM NaF, 50 mM Tris-HCl, pH 7.5), supplemented with EDTA Free […] protease inhibitor (Sigma Aldrich) and 25 U ml−1 Benzonase (Novagen). Cells were resuspended and rotated at 4 °C for 90 min. Benzonase was then inhibited by adjusted NaCl concentration to 200 mM and with the addition of 2 mM EDTA, followed by rotation for a further 30 min at 4 °C on a carousel. The cell suspension was then centrifuged at 16,000 x g for 25 min at 4 °C. In parallel, 20 µl agarose binding control bead (bab, Chromotek) slurry was washed with 500 µl IP buffer 2 (200 mM NaCl, 0.2% Igepal CA-630, 1 mM MgCl2, 10% glycerol, 5 mM NaF, 2 mM EDTA, 50 mM Tris-HCl, pH 7.5). The binding control beads were then centrifuged at 2500 x g for 2 min. The supernatant was then removed and the IP2 wash was repeated twice more. Cell lysates (soluble supernatant) were then collected added to the agarose binding control beads in 15 ml centrifuge tubes and subsequently rotated at 4 °C on carousel for 60 min. The agarose binding control beads were then pelleted by centrifugation at 2000 x g for 2 min, the supernatant was then transferred to a new tube. BCA assay was then carried out to determine the protein concentration of the pre-cleared cell lysate. […] The supernatant, now containing eluted material, was transferred to a new 1.5 ml microcentrifuge tube ready for downstream western blot analysis.

## O=C1NC(=NCc2cccs2)S/C1=C\c1ccc2ncccc2c1 [CDK1i]
RPE1 p53-/- cells
  MUS81 and TOPBP1 foci formation in prometaphase: impairment of MUS81 and TOPBP1 foci formation in prometaphase cells
[1]
  interaction between TOPBP1 and MUS81 or ERCC1: disrupted the interaction between TOPBP1 and MUS81 or ERCC1
  interaction between TOPBP1 and components of the BTR complex: did not affect the interaction between TOPBP1 and components of the BTR complex
  interaction between eGFP-TOPBP1 and SLX4: hindered the interaction between eGFP-TOPBP1 and SLX4
